According to BindingDB's records for doi:10.1016/j.bmcl.2013.01.049 (Dongguk University-Seoul, 2013):

Target: T1, Receptor-type tyrosine-protein kinase FLT3 (Homo sapiens, UniProt P36888)
T1 sequence (P36888 whole entry): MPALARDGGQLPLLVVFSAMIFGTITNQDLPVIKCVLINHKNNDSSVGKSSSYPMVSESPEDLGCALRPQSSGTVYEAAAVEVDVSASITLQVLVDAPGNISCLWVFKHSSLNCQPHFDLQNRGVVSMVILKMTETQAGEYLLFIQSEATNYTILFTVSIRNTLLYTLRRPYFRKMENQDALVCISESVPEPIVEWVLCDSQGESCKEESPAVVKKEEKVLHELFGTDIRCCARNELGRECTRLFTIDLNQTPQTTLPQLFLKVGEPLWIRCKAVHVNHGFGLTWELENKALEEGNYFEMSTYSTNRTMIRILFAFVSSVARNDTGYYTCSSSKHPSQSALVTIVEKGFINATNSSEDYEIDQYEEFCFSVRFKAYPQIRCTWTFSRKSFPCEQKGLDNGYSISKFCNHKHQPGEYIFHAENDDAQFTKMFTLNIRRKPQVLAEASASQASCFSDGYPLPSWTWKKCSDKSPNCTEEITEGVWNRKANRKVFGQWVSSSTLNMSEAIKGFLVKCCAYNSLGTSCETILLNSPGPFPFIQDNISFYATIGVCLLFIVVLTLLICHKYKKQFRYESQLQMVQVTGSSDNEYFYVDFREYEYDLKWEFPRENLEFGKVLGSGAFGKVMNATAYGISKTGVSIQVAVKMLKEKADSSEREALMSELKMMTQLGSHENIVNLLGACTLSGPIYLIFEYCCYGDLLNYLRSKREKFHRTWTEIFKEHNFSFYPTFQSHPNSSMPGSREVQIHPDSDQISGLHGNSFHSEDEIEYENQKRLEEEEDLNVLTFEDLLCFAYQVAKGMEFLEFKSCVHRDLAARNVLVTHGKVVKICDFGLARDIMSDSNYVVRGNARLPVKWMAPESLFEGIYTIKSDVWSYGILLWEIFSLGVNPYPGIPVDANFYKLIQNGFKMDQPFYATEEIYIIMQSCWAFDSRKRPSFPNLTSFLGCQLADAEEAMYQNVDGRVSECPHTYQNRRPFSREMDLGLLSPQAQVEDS
Experiment: Inhibition of recombinant FLT3 (unknown origin) by TR-FRET assay

IC50	Compound
> 10 µM	O=c1cc(O)cc2oc(-c3ccc(O)c(O)c3)c(OC3O[C@H](CO)[C@@H](O)[C@H](O)[C@@H]3O)c(O)c1-2 (stereo partly drawn)
> 10 µM	O=c1cc(O)cc2oc(-c3ccc(O)c(O)c3)c(O[C@@H]3O[C@H](CO)[C@@H](O)[C@H](O)[C@H]3O)c(O)c1-2 [Quercetin 3-O-beta-D-glucoside]
> 10 µM	O=c1cc(O)cc2oc(-c3ccc(O)c(O)c3)c(O[C@@H]3O[C@H](CO)[C@H](O)[C@H](O)[C@H]3O)c(O)c1-2 [2-(3,4-Dihydroxy-phenyl)-5,7-dihydroxy-3-((2S,4R,5R)-3,4,5-trihydroxy-6-hydroxymethyl-tetrahydro-pyran-2-yloxy)-chromen-4-one]
